Drawing on patent US6355634B1, “Aromatic compounds” (Bayer Aktiengesellschaft, priority 1990, dated 2002), this text covers melting point and pest or weed control for 26 compounds.

A value given as a limit tells only on which side of the number the result lay.

The test system of series [1] is Puccinia coronata. The experiment in a line: Puccinia coronata (curative action) on oat seedlings. Type of series: in vivo. The conditions noted are these: 160 ppm spray, oat cv. Selma, evaluated 9-10 days after infection, read-out: action (leaf area infected with Puccinia coronata as a percentage compared with the infected, untreated control). As to the method:
Puccinia coronata (Curative Action)
30-40 oat seedlings cv. “Selma” (distributed to 2 pots of ø7 cm) are infected with Puccinia coronata by spraying with an aqueous spore suspension (approx. 150,000 uredospores/ml). The test plants are subsequently incubated for 24 hours at 20-24° C. and under dew-point conditions. The oat seedlings are then sprayed thoroughly from all sides with a spray mixture prepared with a wettable powder of the active substance (with 160 ppm of active ingredient). They are cultured further in a controlled-environment cabinet at 19° C. and with a photoperiod of 14 hours. The test is evaluated 9-10 days after infection by determining the leaf area infected with Puccinia coronata as a percentage compared with the infected, untreated control.

Series [2] relates to Cercospora arachidicola. The experiment in a line: Action against Cercospora arachidicola on peanut plants (curative action). The conditions noted are these: Mycosphaerella arachidis, 288 h, 160 ppm spray, peanut cv. Tamnut, evaluated 12 days after treatment, read-out: action (leaf area infected with Cercospora arachidicola as a percentage compared with the infected control). It counts as in vivo. As to the method:
Action Against Cercospora arachidicola on Peanut Plants (Curative Action)
Two peanut plants cv. “Tamnut” in the 4-leaf stage are sprayed with a conidia suspension of Cercospora arachidicola (approx. 200,000 conidia/ml) and subsequently incubated at 25-26° C. and under dew-point conditions. After two days, the plants are sprayed thoroughly from all sides with a spray mixture prepared with a wettable powder of the active substance (with 160 ppm of active ingredient). The treated plants are subsequently incubated in a controlled-environment cabinet under the following conditions: 25-27° C. and 80% atmospheric humidity during the day, 20° C. and dew-point conditions during the night; the photoperiod in each case is 16 hours. 12 days after the treatment, the test is evaluated by determining the leaf area infected with Cercospora arachidicola as a percentage compared with the infected control.

In series [3] the test system is Venturia inaequalis. Put plainly: Venturia inaequalis (curative action) on apple seedlings. Type of series: in vivo. To be noted: 50 ppm spray, apple cv. Golden Delicious, evaluated 9-10 days after treatment, read-out: action (leaf area covered in Venturia inaequalis as a percentage compared with the infected control). As to the method: Venturia inaequalis (Curative Action)
Two apple seedlings cv. “Golden Delicious” are sprayed with a conidia suspension of Venturia inaequalis and subsequently incubated at 18° C. and under dew-point conditions. After 24 hours, the plants are sprayed thoroughly from all sides with a spray mixture prepared with a wettable powder of the active substance (with 50 ppm of active ingredient). The treated apple seedlings are subsequently cultured further in the greenhouse. 9-10 days after the treatment, the test is evaluated by determining the leaf area covered in Venturia inaequalis as a percentage compared with the infected control.

The test system of series [4] is Alternaria brassicae. Put plainly: Alternaria brassicae (protective action) on cabbage seedlings. To be noted: 50 ppm spray, cabbage cv. Vorbote, evaluated 2-5 days after infection, read-out: action (leaf area infected with Alternaria brassicae as a percentage compared with the infected, untreated control). It counts as in vivo. The procedure: Alternaria brassicae (Protective Action)
4 cabbage seedlings, cv. “Vorbote”, in the 6-leaf stage, distributed to 2 pots, are sprayed thoroughly with a spray mixture prepared with a wettable powder of the active substance (with 50 ppm of active ingredient) and subsequently cultured further in a controlled-environment cabinet at 19° C. and with 16 hours illumination per day. Two days after the treatment, the plants are infected by spraying with an aqueous conidia suspension (approx. 30,000 conidia/ml). The cabbage plants are then incubated at 24-26° C., under dew-point conditions and with a photoperiod of 16 hours. The test is evaluated 2-5 days after the infection by determining the leaf area infected with Alternaria brassicae as a percentage compared with the infected, untreated control.

In series [5] the test system is Plasmopara viticola. The experiment in a line: Plasmopara viticola (protective action) on grapevine seedlings. To be noted: 144 h, 160 ppm spray, grapevine cv. Riesling x Sylvaner, day 6 after infection, read-out: action (leaf area infected with Plasmopara viticola as a percentage compared with the infected, untreated control). It counts as in vivo. As to the method:
Plasmopara viticola (Protective Action)
2 grapevine seedlings cv. Riesling×Sylvaner, each in the 4-5 leaf stage, are sprayed thoroughly from all sides with a spray mixture prepared with a wettable powder of the active substance (with 160 ppm of active ingredient) and subsequently cultured further in a controlled-environment cabinet at 17° C., 70-80% relative atmospheric humidity and with a photoperiod of 16 hours. After 6 days, the test plants are infected by spraying the undersides of the leaves with zoosporangia of Plasmopara viticola, suspended in distilled water (approx. 300,000 sporangia/ml). The grapevine plants are then incubated as follows: 1 day at 22° C. and under dew-point conditions in the dark and subsequently 4 days in the greenhouse. To induce fructification of Plasmopara viticola, the grapevines are transferred to a controlled-environment cabinet with dew-point conditions at 22° C. on day 5 after the infection.
The tests are carried out in each case on day 6 after the infection by determining the leaf area infected with Plasmopara viticola as a percentage compared with the infected, untreated control.

The test system of series [6] is Erysiphe graminis. The experiment in a line: Erysiphe graminis (protective action) on wheat seedlings. It counts as in vivo. The conditions noted are these: Blumeria graminis, 168 h, 160 ppm spray, wheat cv. Lita, evaluated 7 days after infection, read-out: action (leaf area covered in Erysiphe graminis as a percentage compared with the infected control). As to the method: Erysiphe graminis (Protective Action)
30-40 wheat seedlings cv. “Lita” in the 1-leaf stage (distributed to two pots of ø7 cm) are sprayed thoroughly with a spray mixture prepared with a wettable powder of the active substance (with 160 ppm of active ingredient) and then cultured further in the greenhouse. One day after the treatment, the plants are dusted with conidia of Erysiphe graminis. The test is evaluated 7 days after the infection by determining the size of the leaf area covered in Erysiphe graminis as a percentage compared with the infected control.
Untreated, but infected control plants show a level of infection with Erysiphe of 100%.

By melting point is commonly meant the temperature of the solid-liquid transition. `CO/N=C(\C(=O)OC)c1ccccc1CON=C(C)c1ccco1` gave a melting point of 95 to 97 °C.
`CO/N=C(\C(=O)OC)c1ccccc1CON=C(C)c1cccc(C(F)(F)F)c1` [Compound 12]: the pest or weed control at 160 ppm in series [1], in series [2] and in series [5] was greater than 75% in each case. The pest or weed control at 50 ppm in series [3] and in series [4] was greater than 75% throughout.
`CO/N=C(\C(=O)OC)c1ccccc1CON=C(C)c1ccccn1` [Compound 15] registered a melting point of 82 to 84 °C. Further, the pest or weed control at 160 ppm in series [6] was greater than 75%. The pest or weed control at 50 ppm in series [3] was greater than 75%.
Take `CO/N=C(\C(=O)OC)c1ccccc1CON=C(C)c1ccc(Cl)cc1` [Compound 17]: the pest or weed control at 160 ppm in series [1], in series [2] and in series [5] was greater than 75% in each case. Besides, the pest or weed control at 50 ppm in series [3] and in series [4] was greater than 75% in each case.
`CO/N=C(\C(=O)OC)c1ccccc1CON=C(C)c1cccc(Br)c1` [Compound 22]: the pest or weed control at 160 ppm in series [2] and in series [5] was greater than 75% in each case. The pest or weed control at 50 ppm in series [3] and in series [4] was greater than 75% each time.
`CO/N=C(\C(=O)OC)c1ccccc1CON=C(C)Cc1cccc(C(F)(F)F)c1` [Compound 24]: the pest or weed control at 160 ppm in series [2], in series [6] and in series [5] was greater than 75% each time. Besides, the pest or weed control at 50 ppm in series [3] and in series [4] was greater than 75% in each case.
Consider `CCC(=NOCc1ccccc1/C(=N/OC)C(=O)OC)c1ccccc1` [Compound 28], for which the pest or weed control at 50 ppm in series [3] and in series [4] was greater than 75% each time. Besides, in series [5], the pest or weed control at 160 ppm was greater than 75%.
Consider `CO/N=C(\C(=O)OC)c1ccccc1CON=C(c1ccccc1)C(C)C` [Compound 29], for which the pest or weed control at 160 ppm in series [6] and in series [5] was greater than 75% throughout. The pest or weed control at 50 ppm in series [3] and in series [4] was greater than 75% throughout.
In the case of `CO/N=C(\C(=O)OC)c1ccccc1CON=C(c1cccc(Br)c1)C(F)(F)F` [Compound 30], the pest or weed control at 160 ppm in series [2] and in series [5] was greater than 75% throughout. Also, the pest or weed control at 50 ppm in series [3] and in series [4] was greater than 75% throughout.
For the compound `CO/N=C(\C(=O)OC)c1ccccc1CON=C(c1ccc(C)cc1)C(F)(F)F` [Compound 31], the pest or weed control at 160 ppm in series [6] and in series [5] was greater than 75% throughout. Further, the pest or weed control at 50 ppm in series [3] and in series [4] was greater than 75% in each case.
Compound `CO/N=C(\C(=O)OC)c1ccccc1CON=C(C)c1cc(C(F)(F)F)cc(C(F)(F)F)c1` [Compound 33] yielded a melting point of 76 to 78 °C. In addition, in series [2], the pest or weed control at 160 ppm was greater than 75%. For the same compound, in series [6], the pest or weed control at 160 ppm is greater than 75%. Further, the pest or weed control at 50 ppm in series [3] is greater than 75%. Moreover, the pest or weed control at 50 ppm in series [4] is greater than 75%.
`CO/N=C(\C(=O)OC)c1ccccc1CON=C(C)c1ccc(F)cc1` [Compound 34] registered a melting point of 89 to 90 °C. The pest or weed control at 160 ppm in series [2] was greater than 75%. Besides, the pest or weed control at 160 ppm in series [6] is greater than 75%. The pest or weed control at 50 ppm in series [3] was greater than 75%. Besides, the pest or weed control at 50 ppm in series [4] was greater than 75%.
In the case of `CO/N=C(\C(=O)OC)c1ccccc1CON=C(c1ccccc1)C1CC1` [Compound 36], the pest or weed control at 160 ppm in series [2] and in series [5] was greater than 75% in each case. For the same compound, the pest or weed control at 50 ppm in series [3] and in series [4] was greater than 75% each time.
As to `CO/N=C(\C(=O)OC)c1ccccc1CON=C(C)c1ccc2c(c1)OCO2` [Compound 38], the pest or weed control at 160 ppm in series [2] and in series [5] was greater than 75% each time. Besides, the pest or weed control at 50 ppm in series [3] and in series [4] was greater than 75% in each case.
In the case of `CO/N=C(\C(=O)OC)c1ccccc1CON=C(c1ccc2c(c1)OCO2)C1CC1` [Compound 41], the pest or weed control at 160 ppm in series [2] and in series [5] was greater than 75% each time.
Turning to `CO/N=C(\C(=O)OC)c1ccccc1CON=C(C)c1ccc(OC(F)F)cc1` [Compound 78], in series [1], the pest or weed control at 160 ppm is greater than 75%. In series [3], the pest or weed control at 50 ppm is greater than 75%.
Regarding `CO/N=C(\C(=O)OC)c1ccccc1CON=C(C)c1ccc(F)c(C(F)(F)F)c1` [Compound 90], the pest or weed control at 160 ppm in series [1] and in series [2] was greater than 75% throughout.
Take `CCC(=NOCc1ccccc1/C(=N/OC)C(=O)OC)c1ccc2ccccc2c1` [Compound 120]: the pest or weed control at 160 ppm in series [6] and in series [5] was greater than 75% each time.
Take `CO/N=C(\C(=O)OC)c1ccccc1CON=C(C)C(=O)c1ccc(F)cc1` [Compound 128]: the pest or weed control at 160 ppm in series [1] and in series [6] was greater than 75% each time.
With `CO/N=C(\C(=O)OC)c1ccccc1CON=C(C)C(=O)c1cccc(Br)c1` [Compound 129], the pest or weed control at 160 ppm in series [2] and in series [5] was greater than 75% throughout.
On to `CO/N=C(\C(=O)OC)c1ccccc1CON=C(C)C(=O)c1cccc(C(F)(F)F)c1` [Compound 131], for which the pest or weed control at 160 ppm in series [1] was greater than 75%. Besides, the pest or weed control at 50 ppm in series [3] was greater than 75%.
Take `CO/N=C(\C(=O)OC)c1ccccc1CON=C(C)Cc1ccc(Cl)c(C(F)(F)F)c1` [Compound 133]: the pest or weed control at 160 ppm in series [1] and in series [2] was greater than 75% throughout.
Consider `CO/N=C(\C(=O)OC)c1ccccc1CON=C(C)c1cccc(Cl)c1` [Compound 135], for which the pest or weed control at 160 ppm in series [6] and in series [5] was greater than 75% throughout. Besides, in series [3], the pest or weed control at 50 ppm was greater than 75%.
As for `CO/N=C(\C(=O)OC)c1ccccc1CON=C(C)c1cccc(OC(F)(F)F)c1` [Compound 138], the pest or weed control at 160 ppm in series [1], in series [2] and in series [5] was greater than 75% in each case. Further, the pest or weed control at 50 ppm in series [4] is greater than 75%.
Regarding `CO/N=C(\C(=O)OC)c1ccccc1CON=C(c1cccc(C(F)(F)F)c1)C1CC1` [Compound 148], the pest or weed control at 160 ppm in series [1] and in series [2] was greater than 75% in each case.
On to `CO/N=C(\C(=O)OC)c1ccccc1CON=C(c1ccc2ccccc2c1)C1CC1` [Compound 150], for which the pest or weed control at 50 ppm in series [4] was greater than 75%. In addition, in series [5], the pest or weed control at 160 ppm is greater than 75%.
